Measurements published in US5780474A, “3-(piperid-4-yl)-1,2-benzisoxazole and 3-(piperazin-4-yl)-1,2-benzisoxazole compounds” (Adir et Compagnie, priority 1996, dated 1998).

Key:
[1] = test system: verticalisation induced by apomorphine; test: Verticalisation induced by apomorphine in the mouse; format: in vivo; conditions: sc, product s.c. 30 min before apomorphine 0.75 mg/kg s.c., read-out: ID50 verticalisation
Method: 1. Verticalisation induced by apomorphine (0.75 mg/kg, s.c.) in the mouse
This test, described by Protais et al., Psychopharmacology, 50, 1-6 (1976), allows the evaluation of the dopaminergic antagonist activity of possible anti-psychotic products. A mouse to which apomorphine has been administered and which has been placed in a cage with vertical bars will, most of the time, remain immobile at the top of the cage, clinging by its four paws to the bars. This verticalisation behaviour is blocked if a dopaminergic antagonist product has been administered before the apomorphine.
Test immediately after subcutaneous (s.c.) administration of the product or solvent (control group), the mouse is placed in a cylindrical cage (14 cm diam.×14 cm height) with vertical bars. Thirty minutes later, the animal receives the dose of apomorphine (0.75 mg/kg, s.c.). […]
Statistical analysis: The effect of the product on verticalisation is evaluated by comparing the scores obtained for each group that has received a dose of product with those obtained for the control group (solvent) using a Mann and Whitney U test with a probability of p<0.05. […]

[2] = test system: conditioned avoidance response; test: Active avoidance conditioning in the rat; format: in vivo; conditions: sc, administered subcutaneously 30 minutes before the session, read-out: ID50 conditioned avoidance responses
Method: 2. Active avoidance conditioning in the rat
This test is conventionally used to characterise anti-psychotic products, cf. P. A. Janssen, C. J. E. Niemegeers, Arzneim-Forsch., 1037-1043 (1961).
It is carried out in a cage having two compartments with an electrified floor, on rats that have been conditioned in the following manner: on presentation of a light signal, the animal must move from the compartment in which it is situated to the other compartment in order not to receive an electric shock. The response of the animal to the light signal is a conditioned Avoidance response. […] The response to the electric shock is an unconditioned Escape response.
Conventionally, anti-psychotic products inhibit the conditioned Avoidance response at doses lower than those which inhibit the non-conditioned Escape response. That differentiates them from other classes of products (in particular, barbiturates and benzodiazepines), which inhibit both responses alike. […]
Test: the animals are their own controls. […] The effects of a product on the avoidance responses are evaluated during a Test Session which takes places the day after a Control Session during the course of which the animals will have received the solvent. […]

[3] = test system: aggressiveness in isolated mice; test: Test of aggressiveness in isolated mice; format: in vivo; conditions: Mus musculus, sc, administered subcutaneously 30 minutes before test, read-out: ID50 number or duration of the attacks
Text: 3. Test of aggressiveness in isolated mice
This test allows the evaluation of the intraspecies anti-aggressive activity of a product in mice that have been kept in isolation for several months.
Animals: The test uses male CD mice (Charles River) weighing from 22 to 25 g on arrival at the animal house. Immediately on arrival the animals are isolated in individual cages made of opaque black polycarbonate (23×14×13 cm) having a grill lid, and are housed for a prolonged period (approximately 6 months) in the experimentation room.
Selection of pairs of mice: The selection of pairs of aggressive mice that will be used on a long-term basis in the study starts after the animals have been isolated for one month. Once or twice per week a mouse from another cage (intruder) is placed in the cage of a (resident) mouse and the two animals are observed to see if they attack one another (sniffing, pursuing, nipping, biting) during that trial. At the end of the trial (maximum duration of 10 minutes), each mouse is isolated again in its own cage. If attacks have occurred, the same pair will be tested again in the next trial; if there have been no attacks, each mouse of that pair will be placed in the presence of a different mouse in the following trial. […]

[4] = in vivo; conditions: rat
Text: Induction of catalepsy in the rat
Test: the animals are placed in individual cages and food is withdrawn the day before the test, but drink is taken as desired. The catalepsy test comprises placing each rear paw of the animal on the front paw of the same side and measuring the time (seconds) during which the animal remains in that "crossed paws" position (maximum 30 seconds). Each animal is subjected to three successive tests (one every two minutes), the animal being removed from its cage and placed on the work surface. The tests are carried out one hour after the subcutaneous injection or oral administration of the product or its solvent. The average value of the three tests represents the duration of the catalepsy (in seconds) for each animal. There are five or six rats per experimental group.
Statistical analysis: The effect of the product on the duration of catalepsy is evaluated by an ANOVA, followed by a Dunnett's test, with a probability of p<0.05.

SMILES	ED50 [1] [mg/kg]	ED50 [2] [mg/kg]	ED50 [3] [mg/kg]	ED50 at 1 h [4] [mg/kg]	ED50 at 1 h ([4]; sc) [mg/kg]
O=C1N(CCN2CCC(c3noc4cc(F)ccc34)CC2)CCN1c1ccccc1 [Example 5, 1-{2-[4-(6-Fluoro-1,2-benzisoxazol-3-yl)piperid-1-yl]ethyl}-3-phenylimidazolidin-2-one]	0.22	0.88	0.18	34	
O=C(CCCN1CCC(O)(c2ccc(Cl)cc2)CC1)c1ccc(F)cc1 [haloperidol, reference compound]					0.15
